This assay deals with T1, vitronectin receptor αvβ3 (Homo sapiens, UniProt P05106+P06756).
T1 construct: expressed in transfected cells
Put plainly: Inhibition of binding of 293 cells to human vitronectin (Vn/293 cell test). It is filed as cell-based. The following applies: 293 cells cotransfected with αv and β3 subunits; plate coated with human vitronectin; 90 minutes at 37° C. The source says:
Test for the Measurement of the Inhibition of Binding of 293 Cells to Human Vitronectin (Vn/293 Cell Test)
1. Purification of Human Vitronectin
Human vitronectin is isolated from human plasma and purified by affinity chromatography according to the method of Yatohyo et al., Cell Structure and Function […]: 281-292 (1988).
293 cells, a human embryonic kidney cell line, which are cotransfected with DNA sequences for the αv and β3 subunits of the vitronectin receptor αvβ3, are selected for a high rate of expression (>500,000 αvβ3 receptors/cell) according to the FACS method. The selected cells are cultured and sorted again by means of FACS in order to obtain a stable cell line (15 D) with expression rates >1,000,000 copies of αvβ3 per cell.
A Linbro 96-well tissue culture plate with a flat bottom is coated overnight at 4° C. with human vitronectin (0.01 mg/ml, 0.05 ml/well) in phosphate-buffered saline solution (PBS) and then blocked with 0.5% strength BSA (bovine serum albumin). Solutions of the test substances from 10^−10 mol/l to 2×10^−3 mol/l in glucose-containing DMEM medium are prepared and 0.05 ml/well of the solution are added to the plate in each case. The cells which express high levels of αvβ3 (for example 15 D) are suspended in glucose-containing DMEM medium and the suspension is adjusted to a content of 25,000 cells/0.05 ml of medium. 0.05 ml of this cell suspension is added to each well and the plate is incubated at 37° C. for 90 minutes. The plate is washed three times with warm PBS in order to remove unbound cells. The bound cells are lyzed in citrate buffer (25 mM, pH 5.0) which contains 0.25% Triton X-100. The hexoseamidase substrate p-nitrophenyl-N-acetyl-β-D-glucosaminide is then added and the plate is incubated at 37° C. for 90 minutes. The reaction is stopped with a glycine (50 mM)/EDTA (5 mM) buffer (ph 10.4), and the absorption of each well is measured at 405-650 nm. The data are analyzed according to standard processes.

Drawing on patent US6747148B2, “Sulfonamide derivatives as inhibitors of bone resorption and as inhibitors of cell adhesion” (Hoechst Marion Roussel Deutschland GmbH, priority 1998, dated 2004), this text covers IC50 for 23 compounds.

T1 sequence (P06756 31-889 limits assumed): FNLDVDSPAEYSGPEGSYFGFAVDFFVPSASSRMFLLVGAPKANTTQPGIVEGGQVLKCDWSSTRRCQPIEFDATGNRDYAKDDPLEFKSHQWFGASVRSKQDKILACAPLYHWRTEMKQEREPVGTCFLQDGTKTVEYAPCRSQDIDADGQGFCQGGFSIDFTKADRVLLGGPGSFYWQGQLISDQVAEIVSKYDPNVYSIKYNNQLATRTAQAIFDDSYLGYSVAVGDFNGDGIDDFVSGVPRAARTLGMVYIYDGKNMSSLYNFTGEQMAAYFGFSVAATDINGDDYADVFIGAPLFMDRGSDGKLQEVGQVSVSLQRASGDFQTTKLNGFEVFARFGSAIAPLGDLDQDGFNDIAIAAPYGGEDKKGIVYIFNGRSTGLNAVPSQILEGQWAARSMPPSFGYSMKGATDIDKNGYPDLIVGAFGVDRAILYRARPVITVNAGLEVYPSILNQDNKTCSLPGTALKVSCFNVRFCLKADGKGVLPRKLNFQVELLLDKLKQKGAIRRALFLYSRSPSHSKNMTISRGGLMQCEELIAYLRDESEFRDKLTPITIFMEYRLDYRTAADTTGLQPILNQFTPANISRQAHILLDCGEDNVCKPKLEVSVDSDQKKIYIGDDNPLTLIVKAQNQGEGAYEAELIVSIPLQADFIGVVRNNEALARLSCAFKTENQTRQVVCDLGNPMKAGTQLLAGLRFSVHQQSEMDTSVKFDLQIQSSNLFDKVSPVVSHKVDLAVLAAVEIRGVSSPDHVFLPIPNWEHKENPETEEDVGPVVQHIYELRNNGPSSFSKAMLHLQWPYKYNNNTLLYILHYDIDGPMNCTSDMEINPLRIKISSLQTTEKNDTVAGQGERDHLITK
T1 sequence (P06756 891-1048 partner limits assumed): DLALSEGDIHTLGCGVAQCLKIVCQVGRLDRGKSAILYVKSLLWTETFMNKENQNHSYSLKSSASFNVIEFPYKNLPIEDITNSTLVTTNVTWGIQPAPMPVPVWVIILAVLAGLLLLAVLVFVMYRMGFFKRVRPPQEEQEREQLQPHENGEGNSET
T1 sequence (P05106 27-788): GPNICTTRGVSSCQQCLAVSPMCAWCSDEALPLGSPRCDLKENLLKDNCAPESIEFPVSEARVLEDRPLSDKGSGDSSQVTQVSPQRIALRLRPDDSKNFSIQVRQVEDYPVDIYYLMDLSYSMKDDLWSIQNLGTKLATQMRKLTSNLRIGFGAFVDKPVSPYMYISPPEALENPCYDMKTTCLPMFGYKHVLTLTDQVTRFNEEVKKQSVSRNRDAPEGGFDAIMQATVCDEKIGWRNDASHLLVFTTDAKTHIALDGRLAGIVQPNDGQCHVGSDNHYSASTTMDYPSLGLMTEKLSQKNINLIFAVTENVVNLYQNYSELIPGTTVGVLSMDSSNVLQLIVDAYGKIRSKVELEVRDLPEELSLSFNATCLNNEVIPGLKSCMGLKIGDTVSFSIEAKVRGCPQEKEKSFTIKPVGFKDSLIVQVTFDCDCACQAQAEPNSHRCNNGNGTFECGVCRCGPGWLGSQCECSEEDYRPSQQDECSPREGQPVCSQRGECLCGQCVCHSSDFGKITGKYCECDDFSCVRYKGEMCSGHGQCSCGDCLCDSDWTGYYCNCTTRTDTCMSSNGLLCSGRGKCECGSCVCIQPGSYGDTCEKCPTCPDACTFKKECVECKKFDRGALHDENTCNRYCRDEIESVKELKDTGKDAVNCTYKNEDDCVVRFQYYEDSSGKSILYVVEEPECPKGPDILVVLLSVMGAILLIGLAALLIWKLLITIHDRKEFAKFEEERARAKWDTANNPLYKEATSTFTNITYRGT

As to `CCCc1ccc(S(=O)(=O)N[C@@H](CNC(=O)c2ccc(CCC(=O)NC3=NCCCN3)cc2)C(=O)O)cc1` [Example 8, (2S)-2-(4-Propyl-benzenesulfonylamino)-3-(4-(2-(1,4,5,6-tetrahydropyrimidin-2-ylcarbamoyl)-ethyl)-benzoylamino)-propionic acid], the IC50 stood at 20 nM. The compound `CC(C)CS(=O)(=O)N[C@@H](CNC(=O)c1ccc(CCC(=O)NC2=NCCCN2)cc1)C(=O)O` [Example 9, (2S)-2-(2-Methyl-propane-1-sulfonylamino)-3-(4-(2-(1,4,5,6-tetrahydropyrimidin-2-ylcarbamoyl)-ethyl)-benzoylamino)-propionic acid] had an IC50 of 69 nM. In the case of `CCCCS(=O)(=O)N[C@@H](CNC(=O)c1ccc(CCC(=O)NC2=NCCCN2)cc1)C(=O)O` [Example 23, (2S)-2-(Butane-1-sulfonylamino)-3-(4-(2-(1,4,5,6-tetrahydropyrimidin-2-ylcarbamoyl)-ethyl)-benzoylamino)-propionic acid] it was 30 nM; in that of `O=C(CCc1ccc(C(=O)NC[C@H](NS(=O)(=O)c2ccc3ccccc3c2)C(=O)O)cc1)NC1=NCCCN1` [Example 20, (2S)-2-(Naphthalene-2-sulfonylamino)-3-(4-(2-(1,4,5,6-tetrahydropyrimidin-2-ylcarbamoyl)-ethyl)-benzoylamino)-propionic acid], 5 nM; in that of `COc1ccc(S(=O)(=O)N[C@@H](CNC(=O)c2ccc(CCC(=O)NC3=NCCCN3)cc2)C(=O)O)cc1` [Example 16, (2S)-2-(4-Methoxy-benzenesulfonylamino)-3-(4-(2-(1,4,5,6-tetrahydropyrimidin-2-ylcarbamoyl)-ethyl)-benzoylamino)-propionic acid], 26 nM.

Turning to `O=C(CCc1ccc(C(=O)NC[C@H](NS(=O)(=O)c2cccc(C(F)(F)F)c2)C(=O)O)cc1)NC1=NCCCN1` [Example 15, (2S)-3-(4-(2-(1,4,5,6-Tetrahydropyrimidin-2-ylcarbamoyl)-ethyl)-benzoylamino)-2-(3-trifluoromethyl-benzenesulfonylamino)-propionic acid], the IC50 turned out to be 6 nM. The compound `O=C(CCc1ccc(C(=O)NC[C@H](NS(=O)(=O)c2ccc(-c3ccccc3)cc2)C(=O)O)cc1)NC1=NCCCN1` [Example 19, (2S)-2-(Biphenyl-4-sulfonylamino)-3-(4-(2-(1,4,5,6-tetrahydropyrimidin-2-ylcarbamoyl)-ethyl)-benzoylamino)-propionic acid] had an IC50 of 38 nM. Against the preceding compound, the IC50 is about 6.3-fold higher. Take `O=C(CCc1ccc(C(=O)NC[C@H](NS(=O)(=O)/C=C/c2ccccc2)C(=O)O)cc1)NC1=NCCCN1` [Example 7, (2S)-2-(2-Phenyl-ethenesulfonylamino)-3-(4-(2-(1,4,5,6-tetrahydropyrimidin-2-ylcarbamoyl)-ethyl)-benzoylamino)-propionic acid]: the IC50 came to 28 nM. In the case of `O=C(CCc1ccc(C(=O)NC[C@H](NS(=O)(=O)c2ccccc2)C(=O)O)cc1)NC1=NCCCN1` [Example 17, (2S)-2-Benzenesulfonylamino-3-(4-(2-(1,4,5,6-tetrahydropyrimidin-2-ylcarbamoyl)-ethyl)-benzoylamino)-propionic acid], the IC50 was 9 nM.

In turn, `O=C(CCc1ccc(C(=O)NC[C@H](NS(=O)(=O)c2cccs2)C(=O)O)cc1)NC1=NCCCN1` [Example 18, (2S)-3-(4-(2-(1,4,5,6-Tetrahydropyrimidin-2-ylcarbamoyl)-ethyl)-benzoylamino)-2-(thiophene-2-sulfonylamino)-propionic acid] gave an IC50 of 14 nM. The compound `N#Cc1ccccc1S(=O)(=O)N[C@@H](CNC(=O)c1ccc(CCC(=O)NC2=NCCCN2)cc1)C(=O)O` [Example 11, (2S)-2-(2-Cyano-benzenesulfonylamino)-3-(4-(2-(1,4,5,6-tetrahydropyrimidin-2-ylcarbamoyl)-ethyl)-benzoylamino)-propionic acid] registered an IC50 of 24 nM. Compound `O=C(CCc1ccc(C(=O)NC[C@H](NS(=O)(=O)c2cccc(Cl)c2)C(=O)O)cc1)NC1=NCCCN1` [Example 14, (2S)-2-(3-Chloro-benzenesulfonylamino)-3-(4-(2-(1,4,5,6-tetrahydropyrimidin-2-ylcarbamoyl)-ethyl)-benzoylamino)-propionic acid] showed an IC50 of 10 nM. For the compound `CS(=O)(=O)N[C@@H](CNC(=O)c1ccc(CCC(=O)NC2=NCCCN2)cc1)C(=O)O` [Example 24, (2S)-2-Methanesulfonylamino-3-(4-(2-(1,4,5,6-tetrahydropyrimidin-2-ylcarbamoyl)-ethyl)-benzoylamino)-propionic acid], the IC50 was found to be 100 nM. Next, `O=C(CCc1ccc(C(=O)NC[C@H](NS(=O)(=O)c2cccc3ccccc23)C(=O)O)cc1)NC1=NCCCN1` [Example 1, (2S)-2-(Naphthalene-1-sulfonylamino)-3-(4-(2-(1,4,5,6-tetrahydropyrimidin-2-ylcarbamoyl)-ethyl)-benzoylamino)-propionic acid]: 6 nM; `O=C(CCc1ccc(C(=O)NC[C@H](NS(=O)(=O)c2ccc(C(F)(F)F)cc2)C(=O)O)cc1)NC1=NCCCN1` [Example 22, (2S)-3-(4-(2-(1,4,5,6-Tetrahydropyrimidin-2-ylcarbamoyl)-ethyl)-benzoylamino)-2-(4-trifluoromethyl-benzenesulfonylamino)-propionic acid]: 10 nM; `O=C(CCc1ccc(C(=O)NC[C@H](NS(=O)(=O)c2ccc(Cl)cc2)C(=O)O)cc1)NC1=NCCCN1` [Example 13, (2S)-^2-(4-Chloro-benzenesulfonylamino)-3-(4-(2-(1,4,5,6-tetrahydropyrimidin-2-ylcarbamoyl)-ethyl)-benzoylamino)-propionic acid]: 27 nM. On to `CC(C)(C)c1ccc(S(=O)(=O)N[C@@H](CNC(=O)c2ccc(CCC(=O)NC3=NCCCN3)cc2)C(=O)O)cc1` [Example 5, (2S)-2-(4-tert-Butyl-benzenesulfonylamino)-3-(4-(2-(1,4,5,6-tetrahydropyrimidin-2-ylcarbamoyl)-ethyl)-benzoylamino)-propionic acid], for which the IC50 came to 18 nM. This IC50 is about 1.5-fold lower than that of the compound before. `O=C(CCc1ccc(C(=O)NC[C@H](NS(=O)(=O)c2cccc3cccnc23)C(=O)O)cc1)NC1=NCCCN1` [Example 2, (2S)-2-(Quinoline-8-sulfonylamino)-3-(4-(2-(1,4,5,6-tetrahydropyrimidin-2-ylcarbamoyl)-ethyl)-benzoylamino)-propionic acid]: the IC50 worked out at 52 nM.

In the case of `CCCS(=O)(=O)N[C@@H](CNC(=O)c1ccc(CCC(=O)NC2=NCCCN2)cc1)C(=O)O` [Example 6, (2S)-2-(Propane-1-sulfonylamino)-3-(4-(2-(1,4,5,6-tetrahydropyrimidin-2-ylcarbamoyl)-ethyl)-benzoylamino)-propionic acid], the IC50 was 32 nM.

The compound `CCCCOc1ccc(S(=O)(=O)N[C@@H](CNC(=O)c2ccc(CCC(=O)NC3=NCCCN3)cc2)C(=O)O)cc1` [Example 10, (2S)-2-(4-Butoxy-benzenesulfonylamino)-3-(4-(2-(1,4,5,6-tetrahydropyrimidin-2-ylcarbamoyl)-ethyl)-benzoylamino)-propionic acid] registered an IC50 of 29 nM. As for `CC1(C)C2CCC1(CS(=O)(=O)N[C@@H](CNC(=O)c1ccc(CCC(=O)NC3=NCCCN3)cc1)C(=O)O)C(=O)C2` (stereo partly drawn) [Example 12, (2S)-2-(7,7-Dimethyl-2-oxo-bicyclo[2.2.1]hept-1-ylmethanesulfonylamino)-3-(4-(2-(1,4,5,6-tetrahydropyrimidin-2-ylcarbamoyl)-ethyl)-benzoylamino)-propionic acid], the half-maximal inhibitory concentration (IC50) was found to be 27 nM. For `CC(=O)Nc1ccc(S(=O)(=O)N[C@@H](CNC(=O)c2ccc(CCC(=O)NC3=NCCCN3)cc2)C(=O)O)cc1` [Example 3, (2S)-2-(4-Acetylamino-benzenesulfonylamino)-3-(4-(2-(1,4,5,6-tetrahydropyrimidin-2-ylcarbamoyl)-ethyl)-benzoylamino)-propionic acid], the IC50 came out at 27 nM. `Cc1cc(C)c(S(=O)(=O)N[C@@H](CNC(=O)c2ccc(CCC(=O)NC3=NCCCN3)cc2)C(=O)O)c(C)c1` [Example 21, (2S)-3-(4-(2-(1,4,5,6-Tetrahydropyrimidin-2-ylcarbamoyl)-ethyl)-benzoylamino)-2-(2,4,6-trimethyl-benzenesulfonylamino)-propionic acid] gave an IC50 of 21 nM.
